The source of these data is article PMC10724293, “New ruthenium-xanthoxylin complex eliminates colorectal cancer stem cells by targeting the heat shock protein 90 chaperone” (Cell Death & Disease, 2023).

As a reminder, the pIC50 is −log10 of the IC50, conventionally taken in molar units.

pIC50: −log10 of the molar value.

The test system of one experiment is BAD KO SV40 MEF. Nature of the experiment: Alamar blue survival curves and cell death. The format is cell-based, mouse. The conditions noted are these: BAD KO SV40 MEF vs WT SV40 MEF; 10 μM, 48 h. How it is done: (§1) The Alamar blue assay was used to determine cell viability as previously described. Cells were seeded into 96-well plates at a density of 7 × 10^3 cells per well for adherent cells or 3 × 10^4 cells per well for suspended cells. The drug was added to each well after 24 h of incubation for adherent cells or immediately for suspended cells and incubated for an additional 72 h. […] Each well received 100 µM resazurin (Sigma-Aldrich Co. St. Louis, MO, United States) four (for cell lines) or 24 (for primary culture) h before the end of the incubation. A SpectraMax 190 Microplate Reader (Molecular Devices, Sunnyvale, CA, USA) was used to measure absorbance at 570 and 600 nm.
For apoptosis detection or functional assays, cell viability was quantified using annexin V-FITC/PI (FITC Annexin V Apoptosis Detection Kit I, BD Biosciences, San Jose, CA, USA) or YO-PRO-1/PI (Sigma-Aldrich Co.). The following inhibitors were used: chloroquine (autophagy inhibitor, Ipca Laboratories, Mumbai, MH, India); 3-methyladenine (autophagy inhibitor, Sigma-Aldrich Co.); and lithium chloride (Wnt activator, Sigma-Aldrich Co.).
For orientation: The colour change of resazurin is a common sign of viable cells or microbes.

In experiment [1] the test system is HCT116 cells. Nature of the experiment: Colonosphere assay. The class given is cell-based, human. How it is done:
HCT116 cells, at densities of 1.25 × 10^5 cells/ml, were cultured in 24-well low adhesion plates (Corning, USA) in serum-free DMEM-F12 supplemented with 20 ng/ml bFGF (PeproTech, USA), 20 ng/ml EGF (PeproTech, USA), and B27 supplement (Invitrogen, Carlsbad, CA, USA). On the following day, the cells were subjected to drug concentrations of 20, 10, 5, 2.5, and 1.25 μM. The cells were photographed using an optical microscope after 0, 24, 48, and 72 h of incubation (Leica, DMI8). Furthermore, 10 µM RXC-treated cells were stained with acridine orange/PI and analyzed by confocal microscopy or stained with anti-CD133 antibody plus YO-PRO-1 and analyzed by flow cytometry.

Experiment [2] deals with HCT116 cells. Nature of the experiment: CRC tumor growth xenograft model. The format is in vivo, C. B-17 SCID mice. The conditions noted are these: 2 mg/kg i.p. once a day for 2 weeks; control 0.81 ± 0.09 g. Here is the method:
HCT116 cells (10^7 cells/500 μl) were inoculated subcutaneously into the left front armpit of mice, as previously reported. The animals were then treated intraperitoneally (200 μl/animal) once a day for 2 weeks. […] The animals were euthanized with an anesthetic overdose (thiopental, 100 mg/kg) 1 day after treatment ended, and tumors were excised, weighed, and processed for histological analysis. The inhibition ratio (percent) was calculated as follows: inhibition ratio (percent) = [(A − B)/A] × 100, where A is the average tumor weight of the negative control and B is the treated group.

The subject of another experiment is BJ. Nature of the experiment: Alamar blue cytotoxicity assay, noncancerous cells. The class given is cell-based, human. The conditions noted are these: 72 h, read-out: IC50 and 95%CI. How it is done: as §1
The test system of another experiment is PBMC. Nature of the experiment: Alamar blue cytotoxicity assay, noncancerous cells. The class given is cell-based, human. The conditions noted are these: 72 h, read-out: IC50 and 95%CI. Here is the method:
as §1

The subject of another experiment is MRC-5. Nature of the experiment: Alamar blue cytotoxicity assay, noncancerous cells. The class given is cell-based, human. To be noted: MRC-5 noncancerous cells, 72 h, read-out: IC50 and 95%CI. Here is the method: as §1
For experiment [3], the system named is HCT116 cells. As to the kind of experiment: CD133 expression by flow cytometry. The class given is cell-based, human. The conditions noted are these: 10 μM, 24 h; control 32.0%. How it is done:
For cell surface protein staining, cells were washed with incubation buffer (0.5% bovine serum albumin in PBS), and then antibodies were added and incubated for 1 h at room temperature. The cells were then washed with PBS, and cell fluorescence was measured using flow cytometry. To select viable cells for quantification of CD133-positive cells, YO-PRO-1 (Sigma-Aldrich Co.) was used.

In experiment [4] the test system is HCT116 cells. As to the kind of experiment: Cell cycle distribution and internucleosomal DNA fragmentation by flow cytometry. The format is cell-based, human. Here is the method:
For quantification of internucleosomal DNA fragmentation and cell cycle distribution, the cells were stained with PI using a solution containing 0.1% Triton X-100, 2 µg/ml PI, 0.1% sodium citrate, and 100 µg/ml RNAse (all from Sigma-Aldrich) and incubated in the dark for 15 min at room temperature. Finally, cell fluorescence was measured using flow cytometry.
For all flow cytometry analyses, cell fluorescence was measured with a BD LSRFortessa cytometer and analyzed by BD FACSDiva Software (BD Biosciences) and FlowJo Software 10 (FlowJo LLC; Ashland, OR, USA). At least 10,000 events were evaluated per sample for intracellular staining, and at least 30,000 events were acquired per sample for cell surface protein staining. FSC-A versus FCS-H and SCC-A versus SCC-H were used to remove the doublets. The analysis excluded cellular debris.

In the next experiment the test system is HepG2 cells. The conditions noted are these: C. B-17 SCID mice engrafted with HepG2 cells; cited from earlier work.
For experiment [5], the system named is CR02 (colorectal carcinoma). As to the kind of experiment: Alamar blue viability of primary cancer cells. The format is cell-based, human. The conditions noted are these: primary CRC (second listed); 25 μg/ml (RXC 31.3 μM, DOX 46 μM); 96 h. Here is the method:
as §1, with “nm. […]” for “nm.”

The test system of the next experiment is KG-1a. As to the kind of experiment: Alamar blue cytotoxicity assay. The class given is cell-based, human. To be noted: 72 h, read-out: IC50 and 95%CI. Here is the method: as §1
For a further experiment, the system named is OVCAR-3. Nature of the experiment: Alamar blue cytotoxicity assay. The conditions noted are these: 72 h, read-out: IC50 and 95%CI. The format is cell-based, human. Here is the method: as §1
Another experiment has as its system DU 145. Nature of the experiment: Alamar blue cytotoxicity assay. The format is cell-based, human. To be noted: 72 h, read-out: IC50 and 95%CI. How it is done:
as §1

The subject of a further experiment is SCC-25. As to the kind of experiment: Alamar blue cytotoxicity assay. The class given is cell-based, human. To be noted: 72 h, read-out: IC50 and 95%CI. How it is done:
as §1

The subject of a further experiment is A549. Nature of the experiment: Alamar blue cytotoxicity assay. The format is cell-based, human. The conditions noted are these: 72 h, read-out: IC50 and 95%CI. Here is the method: as §1
In another experiment the test system is MDA-MB-231. Nature of the experiment: Alamar blue cytotoxicity assay. The class given is cell-based, human. To be noted: 72 h, read-out: IC50 and 95%CI. Here is the method: as §1
The test system of the next experiment is NB4. As to the kind of experiment: Alamar blue cytotoxicity assay. The class given is cell-based, human. The conditions noted are these: 72 h, read-out: IC50 and 95%CI. Here is the method:
as §1

As to cis-[Ru(phen)2(xant)](PF6) [RXC], in the experiment with BAD KO SV40 MEF, the “role of the proapoptotic protein BAD in induced cell death” value is “BAD-independent cell death”. The “HCT116 CD133-positive cells in colonospheres” value in the experiment with HCT116 cells [1] (10 μM, 24 h, control 47.8%) turned out to be 19.5%. Moreover, the colonosphere formation result in the experiment on HCT116 cells [1] (1.25-20 μM, 24, 48, 72 h) was “reduced colonosphere formation”. For the same substance, the “mean weight of tumors” value with HCT116 cells [2] is listed as 0.6 ± 0.05 g. The pIC50 with BJ was 6.12; in the experiment with PBMC, 5.31; in the experiment with MRC-5 it was 4.67; with KG-1a, 5.64; with OVCAR-3, 5.83; in the experiment on DU 145 it was 5.38. For the same substance, the pIC50 in the experiment with SCC-25 is 4.99; with A549, 5.15; in the experiment on MDA-MB-231 it was 5.63; with NB4, 5.47. Besides, the “HCT116 CD133-positive cells” value in the experiment on HCT116 cells [3] worked out at 10.1%. For the same substance, the “DNA fragmentation (sub-G0/G1)” value with HCT116 cells [4] (2.5 μM, 48 h, control […]) came out at 7.1%; in the experiment on HCT116 cells [4] (2.5 μM, 72 h, control 2.0%), 18.8%; in the experiment on HCT116 cells [4] (5 μM, 48 h, control […]) it was 9.3%; in the experiment on HCT116 cells [4] (5 μM, 72 h, control 2.0%) it was 22.4%; with HCT116 cells [4] (10 μM, 48 h, control […]), 9.6%; in the experiment with HCT116 cells [4] (10 μM, 72 h, control 2.0%), 34.3%. For the same substance, in the experiment with HCT116 cells [4] (10 μM, 24 h), the cell cycle effect result is reported as “cell cycle arrest in S-phase”. Further, in the experiment on HepG2 cells, the tumor growth entry is listed as “suppressed tumor growth”. For the same substance, in experiment [5], the reduced cell viability worked out at 37.4%.
